What was measured:
Format in all cases: in vivo
Alfalfa [1] = experiment: Preemergence herbicidal activity, % control of plant growth; settings: Medicago sativa, pre-emergence, 504 h, 16 lb/acre, about 3 weeks
Text: (§1) By "preemergence" is meant that the compound is applied to the soil prior to emergence of the weed species sought to be controlled. This term, as used herein, also means the application of the herbicidal compounds falling within the scope of this disclosure to areas wherein useful or desirable plants are either growing or have been sown, but where the undesirable plants sought to be controlled have not as yet emerged.
(§2) In using the compound, seeds of the types of plants set forth in Table II were sown in fresh soil. In the preemergence test the soil was sprayed with a solution of the test compound immediately after the seeds were planted, and before any noticeable growth developed. The solution was about a 2 percent by weight solution of the compound in acetone and/or alcohol. The compound was applied at the rate of 16 pounds per acre of soil surface.
(§3) Approximately 3 weeks after spray application, the herbicidal activity of the compound was determined by visual observation of the treated area in comparison with untreated control areas. These observations are reported below in Table II wherein the average activity rating is reported as the percent control of plant growth.
(§4) *Preemergence test: compound applied at rate of 16 lb/acre

Barnyard Grass [2] = experiment: as above; settings: Echinochloa crus-galli, pre-emergence, 504 h; barnyard grass; 16 lb/acre; about 3 weeks
Text: as §1, §2, §3, §4

Cheatgrass [3] = experiment: as above; settings: Bromus tectorum, pre-emergence, 504 h, 16 lb/acre, about 3 weeks
Text: as §1, §2, §3, §4

Chickweed [4] = experiment: as above; settings: pre-emergence, 504 h, 16 lb/acre, about 3 weeks
Text: as §1, §2, §3, §4

Corn [5] = experiment: as above; settings: Zea mays, pre-emergence, 504 h, 16 lb/acre, about 3 weeks
Text: as §1, §2, §3, §4

Crabgrass [6] = experiment: as above; settings: Digitaria sanguinalis, pre-emergence, 504 h, 16 lb/acre, about 3 weeks
Text: as §1, §2, §3, §4

Cucumber [7] = experiment: as above; settings: Cucumis sativus, pre-emergence, 504 h, 16 lb/acre, about 3 weeks
Text: as §1, §2, §3, §4

Curled Dock [8] = experiment: as above; settings: pre-emergence, 504 h, 16 lb/acre, about 3 weeks
Text: as §1, §2, §3, §4

Foxtail [9] = experiment: as above; settings: Setaria, pre-emergence, 504 h, 16 lb/acre, about 3 weeks
Text: as §1, §2, §3, §4

Johnsongrass [10] = experiment: as above; settings: Sorghum halepense, pre-emergence, 504 h, 16 lb/acre, about 3 weeks
Text: as §1, §2, §3, §4

Lambsquarters [11] = experiment: as above; settings: Chenopodium album, pre-emergence, 504 h, 16 lb/acre, about 3 weeks
Text: as §1, §2, §3, §4

Nutgrass [12] = experiment: as above; settings: pre-emergence, 504 h, 16 lb/acre, about 3 weeks
Text: as §1, §2, §3, §4

Pigweed [13] = experiment: as above; settings: Amaranthus retroflexus, pre-emergence, 504 h, 16 lb/acre, about 3 weeks
Text: as §1, §2, §3, §4

Snapbeans [14] = experiment: as above; settings: pre-emergence, 504 h, 16 lb/acre, about 3 weeks
Text: as §1, §2, §3, §4

Velvetleaf [15] = experiment: as above; settings: Abutilon theophrasti, pre-emergence, 504 h, 16 lb/acre, about 3 weeks
Text: as §1, §2, §3, §4

Wild Oats [16] = experiment: as above; settings: Avena fatua, pre-emergence, 504 h, 16 lb/acre, about 3 weeks
Text: as §1, §2, §3, §4

Yellow Rocket [17] = experiment: as above; settings: pre-emergence, 504 h, 16 lb/acre, about 3 weeks
Text: as §1, §2, §3, §4

Alfalfa [18] = experiment: Postemergence herbicidal activity, % control of plant growth; settings: Medicago sativa, post-emergence, 264 h, 8 lb/acre, about 11 days
Text: (§5) By the term "postemergence" is meant that the compound is applied to the plant sought to be controlled after it has emerged from the soil surface. This term is also used to describe the application of herbicidally active compounds to soil surface in and around growing plants sought to be controlled for purposes of effecting root absorption by the undesirable plant species.
(§6) In the postemergence test the soil and developing plants were sprayed approximately 2 weeks after the seeds were sown. The compound was applied at the rate of 8 pounds per acre from about a 2 percent by weight solution of the test compound in acetone and/or alcohol. The postemergence herbicidal activity was measured in the same way as the preemergence activity; i.e. visual observation approximately 11 days after spraying, and expressed as the percent control of plant growth.
(§7) **Postemergence test: compound applied at rate of 8 lb/acre

Barnyard Grass [19] = experiment: as above; settings: Echinochloa crus-galli, post-emergence, 264 h, 8 lb/acre, about 11 days
Text: as §5, §6, §7

Cheatgrass [20] = experiment: as above; settings: Bromus tectorum, post-emergence, 264 h, 8 lb/acre, about 11 days
Text: as §5, §6, §7

Chickweed [21] = experiment: as above; settings: post-emergence, 264 h, 8 lb/acre, about 11 days
Text: as §5, §6, §7

Corn [22] = experiment: as above; settings: Zea mays, post-emergence, 264 h, 8 lb/acre, about 11 days
Text: as §5, §6, §7

Crabgrass [23] = experiment: as above; settings: Digitaria sanguinalis, post-emergence, 264 h, 8 lb/acre, about 11 days
Text: as §5, §6, §7

Cucumber [24] = experiment: as above; settings: Cucumis sativus, post-emergence, 264 h, 8 lb/acre, about 11 days
Text: as §5, §6, §7

Curled Dock [25] = experiment: as above; settings: post-emergence, 264 h, 8 lb/acre, about 11 days
Text: as §5, §6, §7

Foxtail [26] = experiment: as above; settings: Setaria, post-emergence, 264 h, 8 lb/acre, about 11 days
Text: as §5, §6, §7

Johnsongrass [27] = experiment: as above; settings: Sorghum halepense, post-emergence, 264 h, 8 lb/acre, about 11 days
Text: as §5, §6, §7

Lambsquarters [28] = experiment: as above; settings: Chenopodium album, post-emergence, 264 h, 8 lb/acre, about 11 days
Text: as §5, §6, §7

Nutgrass [29] = experiment: as above; settings: post-emergence, 264 h, 8 lb/acre, about 11 days
Text: as §5, §6, §7

Pigweed [30] = experiment: as above; settings: Amaranthus retroflexus, post-emergence, 264 h, 8 lb/acre, about 11 days
Text: as §5, §6, §7

Snapbeans [31] = experiment: as above; settings: post-emergence, 264 h, 8 lb/acre, about 11 days
Text: as §5, §6, §7

Velvetleaf [32] = experiment: as above; settings: Abutilon theophrasti, post-emergence, 264 h, 8 lb/acre, about 11 days
Text: as §5, §6, §7

Wild Oats [33] = experiment: as above; settings: Avena fatua, post-emergence, 264 h, 8 lb/acre, about 11 days
Text: as §5, §6, §7

Yellow Rocket [34] = experiment: as above; settings: post-emergence, 264 h, 8 lb/acre, about 11 days
Text: as §5, §6, §7

Structure (SMILES)	pest or weed control at 17933.6 g/ha (Alfalfa [1])	pest or weed control at 17933.6 g/ha (Barnyard Grass [2])	pest or weed control at 17933.6 g/ha (Cheatgrass [3])	pest or weed control at 17933.6 g/ha (Chickweed [4])	plant injury at 17933.6 g/ha (Corn [5])	pest or weed control at 17933.6 g/ha (Crabgrass [6])	pest or weed control at 17933.6 g/ha (Cucumber [7])	pest or weed control at 17933.6 g/ha (Curled Dock [8])	pest or weed control at 17933.6 g/ha (Foxtail [9])	pest or weed control at 17933.6 g/ha (Johnsongrass [10])	pest or weed control at 17933.6 g/ha (Lambsquarters [11])	pest or weed control at 17933.6 g/ha (Nutgrass [12])	pest or weed control at 17933.6 g/ha (Pigweed [13])	pest or weed control at 17933.6 g/ha (Snapbeans [14])	pest or weed control at 17933.6 g/ha (Velvetleaf [15])	pest or weed control at 17933.6 g/ha (Wild Oats [16])	pest or weed control at 17933.6 g/ha (Yellow Rocket [17])	pest or weed control at 8966.8 g/ha (Alfalfa [18])	pest or weed control at 8966.8 g/ha (Barnyard Grass [19])	pest or weed control at 8966.8 g/ha (Cheatgrass [20])	other results
CCCn1c(=O)[nH]c2cccnc2c1=O [3-propyl-pyrido[3,2-d]pyrimidine-2,4(1H,3H)-dione]	100%	100%	100%	100%	100%	100%	100%	100%	100%	100%	100%	20%	100%	100%	100%	100%	100%	100%	100%	100%	pest or weed control at 8966.8 g/ha (Chickweed [21]): 100%; plant injury at 8966.8 g/ha (Corn [22]): 60%; pest or weed control at 8966.8 g/ha (Crabgrass [23]): 100%; pest or weed control at 8966.8 g/ha (Cucumber [24]): 100%; pest or weed control at 8966.8 g/ha (Curled Dock [25]): 100%; pest or weed control at 8966.8 g/ha (Foxtail [26]): 100%; pest or weed control at 8966.8 g/ha (Johnsongrass [27]): 100%; pest or weed control at 8966.8 g/ha (Lambsquarters [28]): 100%; pest or weed control at 8966.8 g/ha (Nutgrass [29]): 70%; pest or weed control at 8966.8 g/ha (Pigweed [30]): 100%; pest or weed control at 8966.8 g/ha (Snapbeans [31]): 100%; pest or weed control at 8966.8 g/ha (Velvetleaf [32]): 100%; pest or weed control at 8966.8 g/ha (Wild Oats [33]): 90%; pest or weed control at 8966.8 g/ha (Yellow Rocket [34]): 100%
CCCCn1c(=O)[nH]c2nccnc2c1=O [Lumazine, 3-butyl]	0%	0%	0%	90%	0%	0%	0%	0%	0%	0%	0%	0%	0%	20%	0%	0%	0%	0%	0%	0%	pest or weed control at 8966.8 g/ha (Chickweed [21]): 0%; plant injury at 8966.8 g/ha (Corn [22]): 0%; pest or weed control at 8966.8 g/ha (Crabgrass [23]): 0%; pest or weed control at 8966.8 g/ha (Cucumber [24]): 0%; pest or weed control at 8966.8 g/ha (Curled Dock [25]): 0%; pest or weed control at 8966.8 g/ha (Foxtail [26]): 0%; pest or weed control at 8966.8 g/ha (Johnsongrass [27]): 0%; pest or weed control at 8966.8 g/ha (Lambsquarters [28]): 70%; pest or weed control at 8966.8 g/ha (Nutgrass [29]): 0%; pest or weed control at 8966.8 g/ha (Pigweed [30]): 0%; pest or weed control at 8966.8 g/ha (Snapbeans [31]): 0%; pest or weed control at 8966.8 g/ha (Velvetleaf [32]): 0%; pest or weed control at 8966.8 g/ha (Wild Oats [33]): 0%; pest or weed control at 8966.8 g/ha (Yellow Rocket [34]): 70%
